Source: patent publication US7494996B2 (priority 2000, dated 2009)

Experiments:
Sphaerotheca fuliginea = test: Cucumber Powdery Mildew (CPM) protectant test in the greenhouse; format: in vivo; conditions: 100 is total disease control, 0 is no disease control; for Cucumber Powdery Mildew (CPM) protectant fungicide data, percent control: 300 g/ha; for pest or weed control at 300 g/ha: Podosphaera fuliginea, topical, 168 h, read-out: Cucumber Powdery Mildew (CPM) protectant fungicide data, percent control
Summary of the method: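 Compounds in acetone-methanol-water (1:1:2) sprayed onto cucumber cv. "Bush Champion" (cotyledons plus one true leaf, 13 days old), dried 4 h. Inoculated 1 day later with 2×10^5 spores/ml; disease control (%) rated after 7 days in greenhouse.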

Pyricularia oryzae = test: whole plant or invertebrate; format: in vivo; conditions: 100 is total disease control, 0 is no disease control; for Rice Blast (RB) protectant fungicide data, percent control: 300 g/ha, greenhouse; for pest or weed control at 300 g/ha: Pyricularia oryzae, topical, 144 h, read-out: Rice Blast (RB) protectant fungicide data, percent control, protectant, 300 g/ha, greenhouse

Structure (SMILES) | Cucumber Powdery Mildew (CPM) protectant fungicide data, percent control (Sphaerotheca fuliginea) [percent control] | Rice Blast (RB) protectant fungicide data, percent control (Pyricularia oryzae) [percent control] | pest or weed control at 300 g/ha (Sphaerotheca fuliginea) [%] | pest or weed control at 300 g/ha (Pyricularia oryzae) [%]
CCCCN1N=C(c2cc(C)cc(C)c2)NCC1=O [Compound 295] | 50 | 99 | – | –
CCCCN1N=C2C=CC(c3ccc(Cl)cc3)=NN2CC1=O [Compound 229] | – | – | 50 | 0
CCCCN1N=C(c2ccc(Cl)c(Cl)c2)N(Cc2ccc(OC)cc2)CC1=O [Compound 199] | 0 | 90 | – | –
O=C1CNC(c2ccc(C(F)(F)F)cc2)=NN1CC(F)(F)F [Compound 51] | 0 | 90 | – | –
CCCCN1N=C(c2cc(Cl)cc(Cl)c2)N(C(=O)OCI)CC1=O [Compound 16, 1-(n-butyl)-3-(3,5-dichlorophenyl)-4-(iodomethyloxycarbonyl)-4,5-dihydro-1,2,4-triazin-6-one] | – | – | 75 | 90
C=C(C)C1NC(c2ccc(Cl)c(Cl)c2)=NN(CCCC)C1=O (centres unmarked) [Compound 203] | 0 | 85 | – | –
CCCN1N=C(c2cc(Cl)cc(Cl)c2)NCC1=O [Compound 164] | 95 | 100 | – | –
C[Si](C)(C)CN1N=C(c2ccc(Cl)cc2)NCC1=O [Compound 61] | 50 | 85 | – | –
CCCCCN1N=C2C=CC(c3ccc(Cl)cc3)=NN2CC1=O [Compound 24, 2-Pentyl-7-(4-chlorophenyl)-pyridazino[6,1-c][1,2,4]triazin-3(4H)one] | – | – | 50 | 0
N#CCN1N=C(c2ccc(Cl)cc2)NCC1=O [Compound 60] | 0 | 75 | – | –
O=C1CNC(c2cccc([N+](=O)[O-])c2)=NN1CC(F)(F)F [Compound 167] | 0 | 85 | – | –
O=C1CNC(c2cccc(C(F)(F)F)c2)=NN1CC1CC1 [Compound 86] | 80 | 99 | – | –
CCCCN1C=C2c3ccccc3OC(=O)N2CC1=O [Compound 25, 3-n-Butyl-3H-9-oxa-3,10a-diaza-phenanthrene-2,10-dione] | – | – | 0 | 75
CCc1ccc(C2=NN(CCc3ccccc3)C(=O)CN2)cc1 [Compound 189] | 75 | 80 | – | –
O=C1CNC(c2ccc(Cl)c(Cl)c2)=NN1CC1CC1 [Compound 9, 1-Cyclopropylmethyl-3-(3,4-dichlorophenyl)-4,5-dihydro-1,2,4-triazin-6-one] | – | – | 80 | 100
CCCCCCCCCCN1N=C(c2ccc(Cl)cc2)NCC1=O [Compound 57] | 0 | 50 | – | –
CCCCN1N=C(c2ccc(Oc3ccccc3)cc2)NCC1=O [Compound 3, 1-Butyl-3-(4-phenoxyphenyl)-4,5-dihydro-1,2,4-triazin-6-one] | – | – | 0 | 80
CCOCCN1N=C(c2cc(Cl)cc(Cl)c2)NCC1=O [Compound 108] | 85 | 90 | – | –
C=CCOC(=O)N1CC(=O)N(CCCC)N=C1c1cc(Cl)cc(Cl)c1 [Compound 132] | 50 | 85 | – | –
CCCCN1N=C(c2ccc(Cl)c(Cl)c2)N(Cc2ccc(OC)c(OC)c2)CC1=O [Compound 200] | 0 | 85 | – | –

Structure (SMILES) | Cucumber Powdery Mildew (CPM) protectant fungicide data, percent control (Sphaerotheca fuliginea) [percent control] | Rice Blast (RB) protectant fungicide data, percent control (Pyricularia oryzae) [percent control] | pest or weed control at 300 g/ha (Sphaerotheca fuliginea) [%] | pest or weed control at 300 g/ha (Pyricularia oryzae) [%]
CCCCN1N=C(c2ccc(Cl)c(Cl)c2)N(C(=O)OCCCl)CC1=O [Compound 179] | 0 | 75 | – | –
FC(F)(F)Cn1nc(-c2cccc(Cl)c2)ncc1=S [Compound 246] | 0 | 100 | – | –
CC=CC(=O)N1CC(=O)N(CCCC)N=C1c1ccc(Cl)c(Cl)c1 [Compound 177] | 50 | 95 | – | –
O=C1CNC(c2cccc(C(F)(F)F)c2)=NN1CC(F)(F)F [Compound 153] | 0 | 100 | – | –
C#CCN1CC(=O)N(CCCC)N=C1c1cc(Cl)cc(Cl)c1 [Compound 131] | 75 | 80 | – | –
CCCCN1N=C(c2ccc(Cl)c(Cl)c2)NCC1=S [Compound 17, 1-Butyl-3-(3,4-dichlorophenyl)-4,5-dihydro-1,2,4-triazin-6-thione] | – | – | 80 | 99
N#CCCn1nc(-c2ccc(-c3ccc([N+](=O)[O-])cc3)cc2)ncc1=O [Compound 276] | 0 | 85 | – | –
CCCCn1nc(-c2cc(C(F)(F)F)cc(C(F)(F)F)c2)ncc1=O [Compound 288] | 75 | 0 | – | –
CCCCN1N=C(c2ccc(Cl)c(Cl)c2)N(CC2CCC2)CC1=O [Compound 201] | 0 | 85 | – | –
CCCCN1N=C(C)NC(c2ccc(C(C)(C)C)cc2)C1=O (centres unmarked) [Compound 95] | 75 | 25 | – | –
Cc1cccc(C2=NN(CC(F)(F)F)C(=O)CN2)c1 [Compound 154] | 75 | 0 | – | –
O=C1CNC(c2ccc(F)c(Br)c2)=NN1CC1CC1 [Compound 220] | 80 | 100 | – | –
CN1N=C(c2ccccc2)NCC1=O [Compound 31] | 0 | 50 | – | –
N#CCCN1N=C(c2ccc(-c3ccc([N+](=O)[O-])cc3)cc2)NCC1=O [Compound 166] | 0 | 75 | – | –
CCCCN1N=C(c2sc(C)nc2C(F)(F)F)NCC1=O [Compound 68] | 50 | 0 | – | –
CCCCN1N=C(c2ccc(F)c(Cl)c2)NCC1=O [Compound 106] | 95 | 100 | – | –
O=C1CNC(c2ccc(Cl)c(Cl)c2)=NN1 [Compound 174] | 0 | 75 | – | –
O=C1C(O)NC(c2ccccn2)=NN1CC(F)(F)F (centres unmarked) [Compound 53] | 0 | 75 | – | –
Cc1cccc(N2N=C(c3ccc(OCC(F)(F)F)nc3)NCC2=O)c1 [Compound 188] | 0 | 80 | – | –
O=C1CNC(c2cc(Cl)cc(Cl)c2)=NN1CC=CCl (mixture of isomers) [Compound 67] | 80 | 99 | – | –
